Results: EP4775575A1, “COMPOUND USED AS CDK4 KINASE INHIBITOR AND USE THEREOF” (TYK Medicines, Inc., priority 2023, dated 2025)

Experiments:
[1] = biological target: T1, CDK6/CyclinD3 (Homo sapiens, UniProt Q00534); test: Kinase activity assay (MSA, EZ Reader) against CDK6; format: biochemical; conditions: CDK6/CyclinD3 5.00 nM, ATP 350 µM, FL-Peptide34, 10mM MgCl2
T1 construct: purchased Carna 04-107

[2] = system: Human breast cancer cells MCF-7; test: Cell anti-proliferation assay (MTT), MCF-7; format: cell-based; conditions: Homo sapiens, MCF7, 120 h, MCF-7 cells, incubated for 5 days
Method: (§1) Human breast cancer cells MCF-7, human ovarian cancer cells A2780, human mantle cell lymphoma cells JEKO-1. DMEM medium (Bio-Channel), DMSO (dimethyl sulfoxide), MTT (thiazolyl blue), 0.25% EDTA-Trypsin (trypsin digestive solution), 1×PBS (phosphate buffered saline, pH 7.2), 96-well plate (Corning), fetal bovine serum (FBS), 10,000 U/mL penicillin-G/streptomycin, high-speed refrigerated centrifuge (EPPENDORF 5810R), and microplate reader (Tecan Spark).
(§2) • A) Tumor cells were cultured in DMEM (high glucose, containing 10% FBS and 100 U/mL penicillin-G/streptomycin) at 37 °C, 5% CO2 and saturated humidity until 80-90% confluence. • B) The medium in the 10 cm culture dish was removed. • C) Cells were rinsed once with 10 mL of 1×PBS. • D) 4 mL of 0.25% EDTA-Trypsin was added, and the cells were digested in a 37 °C, 5% CO2 incubator for 5 minutes. The mixture was transferred to a 15 mL centrifuge tube, centrifuged at 200 g for 5 minutes, and the supernatant was discarded to obtain cell pellet. • E) The cells were resuspended in 4 mL of DMEM medium, counted, and adjusted to 50,000 cells/mL. • F) 100 µL of cell suspension was added to each well of a 96-well plate, and the plate was incubated overnight at 37 °C in a 5% CO2 incubator.
(§3) • A) Gradient dilution solutions of the test compounds were prepared: the test compound was prepared into a 1 mM stock solution. Then 1.5 µL of the stock solution was dissolved in 1.5 mL of DMSO-free medium, followed by 3-fold serial gradient dilution with medium containing 0.1% DMSO to give 9 concentrations.
(§4) • A) The cell culture plate was taken out, and 10 µL of 5 mg/mL MTT was added in a biological safety cabinet; • B) The plate was returned to the incubator and incubated for another 3 hours; • C) The cell culture plate was taken out and the medium was removed, 100 µL of isopropanol (containing 0.4 mM HCl, 0.1% NP-40) was added, and the plate was shaken at room temperature for 30 minutes; • D) The absorbance at 570 nm was measured using a TECAN microplate reader.

[3] = system: human ovarian cancer cells A2780; test: Cell anti-proliferation assay (MTT), A2780; format: cell-based; conditions: Homo sapiens, 120 h, incubated for 5 days
Method: as §1, §2, §3, §4

[4] = system: human mantle cell lymphoma cells JEKO-1; test: Cell anti-proliferation assay (MTT), JEKO-1; format: cell-based; conditions: Homo sapiens, 120 h, JEKO-1 cells, incubated for 5 days
Method: as §1, §2, §3, §4

[5] = biological target: CDK4/CycD1 (Homo sapiens, UniProt P11802); test: Kinase activity assay (MSA, EZ Reader) against CDK4
[6] = Preclinical pharmacokinetic study in rats; format: in vivo, Sprague-Dawley (SD) rats; conditions: male SD rats, oral gavage (p.o.) 10 mg/kg, plasma
Method: Healthy adult Sprague-Dawley (SD) rats, male, 6-8 weeks old, weighing 200-300 g. EDTA-Na2 anticoagulant. Analytical balance, animal weighing scale, magnetic stirrer, refrigerated centrifuge, single-channel manual pipette, etc. About 10 mg of the test sample was precisely weighed, dissolved in a calculated volume of 5% DMSO, followed by addition of 10% solutol HS-15 and 85% normal saline. The mixture was sonicated and vortexed to homogeneity to obtain a solution with a concentration of 1 mg/mL. The solution was freshly prepared before use. Animals were housed in rat cages and fasted overnight (no less than 10 h) before the test, with free access to water. On the day of the test, animals were weighed and marked on the tail. Blank blood samples were collected before administration. The blood was collected via tail vein. • Route of administration: oral gavage (p.o.) • Dose: 10 mg/kg • Dosing volume: 10 mL/kg • Procedure: The rat was held upright with the left hand wearing bite-resistant glove. A 16-gauge gavage needle was inserted through the mouth into the esophagus. The needle was advanced gently without obvious resistance, and the drug solution was injected into the stomach. Whole blood (0.1 mL) were collected from each test animal before administration and at 0.5 […], and 24 h after administration into EDTA-Na2 anticoagulant tubes. The tubes were inverted 3-4 times for mixing, then centrifuged at 10,000 g for 5 min at 4 °C to separate plasma. Plasma samples were stored at -80 °C until analysis. Blood was collected via tail vein. […] The mixture was vortexed for 2 min and centrifuged at 10,000 g for 10 min at 4 °C. Processing of unknown plasma samples: 25 μL of drug-containing rat plasma was transferred, followed by addition of 25 μL of methanol and 200 μL of internal standard solution. The mixture was vortexed for 2 min and centrifuged at 10,000 g for 10 min at 4 °C. The supernatant was collected for LC-MS/MS analysis. A quantitative method for the determination of the test compound was established using a Shimadzu liquid chromatography system coupled with Triple Quad^TM 6500+ AB mass spectrometer. The concentration of the parent drug in plasma was determined. The plasma concentration-time curve was plotted, and the main pharmacokinetic parameters were calculated using a non-compartmental model in winnonlin Phoenix software.

T1 sequence (Q00534 whole entry): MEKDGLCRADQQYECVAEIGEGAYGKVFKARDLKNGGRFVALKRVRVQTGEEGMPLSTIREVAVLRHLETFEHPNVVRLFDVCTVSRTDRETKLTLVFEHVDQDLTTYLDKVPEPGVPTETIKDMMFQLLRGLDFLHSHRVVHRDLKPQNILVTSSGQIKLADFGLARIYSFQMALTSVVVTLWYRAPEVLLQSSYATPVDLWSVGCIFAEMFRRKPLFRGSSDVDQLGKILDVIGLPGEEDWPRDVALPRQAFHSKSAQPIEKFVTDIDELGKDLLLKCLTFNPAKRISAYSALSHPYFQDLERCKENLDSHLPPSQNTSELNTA
T1 sequence (P30281 whole entry partner): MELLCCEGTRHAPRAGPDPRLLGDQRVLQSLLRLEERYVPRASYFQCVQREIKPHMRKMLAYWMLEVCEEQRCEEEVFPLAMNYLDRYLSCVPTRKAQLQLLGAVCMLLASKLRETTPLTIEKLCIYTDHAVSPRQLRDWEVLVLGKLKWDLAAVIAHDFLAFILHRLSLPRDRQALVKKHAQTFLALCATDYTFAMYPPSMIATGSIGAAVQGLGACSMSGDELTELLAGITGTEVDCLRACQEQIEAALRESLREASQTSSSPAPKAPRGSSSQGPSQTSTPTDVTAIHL
Chain of CDK4/CycD1 (P11802 whole entry): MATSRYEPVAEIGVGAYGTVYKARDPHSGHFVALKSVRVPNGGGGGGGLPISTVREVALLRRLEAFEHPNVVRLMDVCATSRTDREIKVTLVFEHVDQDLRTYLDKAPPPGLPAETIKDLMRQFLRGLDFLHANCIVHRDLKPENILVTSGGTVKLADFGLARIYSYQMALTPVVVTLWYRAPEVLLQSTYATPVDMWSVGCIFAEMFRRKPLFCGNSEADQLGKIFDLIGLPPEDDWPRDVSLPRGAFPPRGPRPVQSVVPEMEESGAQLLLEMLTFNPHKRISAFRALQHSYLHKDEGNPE

Compound | IC50 [1] [nM] | IC50 [2] [nM] | IC50 [3] [nM] | IC50 [4] [nM] | IC50 [5] [nM] | AUC(0-t) ([6]; Sprague-Dawley, rat) [ng·h/mL] | Cmax ([6]; Sprague-Dawley, rat) [ng/mL] | Tmax ([6]; Sprague-Dawley, rat) [min] | HL_ [6] [h]
CC(C)n1c(N(C)C)nc2c(F)cc(-c3nc(NC4CCOCC4)ncc3Cl)cc21 [TB-2, 6-(5-chloro-2-((tetrahydro-2H-pyran-4-yl)amino)pyrimidin-4-yl)-4-fluoro-1-isopropyl-N,N-dimethyl-1H-benzo[d]imidazol-2-amine] | 319 | ≤ 500 | ≤ 500 | ≤ 500 | 18 | – | – | – | –
CC(C)n1c(N2CCOC2=O)nc2c(F)cc(-c3nc(NC4CCN(S(=O)(=O)C5CC5)CC4)ncc3Cl)cc21 [TB-33] | 61.7 | ≤ 500 | ≤ 500 | ≤ 500 | 8.37 | – | – | – | –
CC(C)n1c(N(C)C)nc2c(F)cc(-c3nc(N[C@H]4CC[C@@H](NS(C)(=O)=O)CC4)ncc3Cl)cc21 [TB-4] | – | – | – | – | 27.1 | – | – | – | –
CC(C)n1c(N2CCCOC2=O)nc2c(F)cc(-c3nc(NC4CCN(S(C)(=O)=O)CC4)ncc3Cl)cc21 [TB-142] | 361 | – | – | – | 69.5 | – | – | – | –
CC(C)n1c(N2CCCC2=O)nc2c(F)cc(-c3nc(N[C@@H]4CCOC[C@H]4O)ncc3Cl)cc21 [TB-23] | – | – | – | – | 185 | – | – | – | –
C[C@H]1CCN(C)c2nc3c(F)cc(-c4nc(N[C@@H]5CCN(S(C)(=O)=O)C[C@H]5O)ncc4Cl)cc3n21 [TB-96] | 20.3 | – | – | – | 2.1 | – | – | – | –
CN1C(=O)CCn2c1nc1c(F)cc(-c3nc(N[C@@H]4CCOC[C@H]4O)ncc3Cl)cc12 [TB-46, 7-(5-chloro-2-(((3S,4R)-3-hydroxytetra hydro-2H-pyran-4-yl)amino)pyrimidin-4-yl)-9-fluoro-1-methyl-3,4-dihydrobenzo[4,5]imidazo[1,2-a]pyrimidin-2(1H)-one] | 244 | ≤ 500 | ≤ 500 | ≤ 500 | – | – | – | – | –
C[C@H]1CCN(C)c2nc3c(F)cc(-c4nc(N[C@@H]5CCOC[C@H]5O)ncc4Cl)cc3n21 [TB-92, (3S,4R)-4-((5-chloro-4-((S)-9-fluoro-1,4-dimethyl-1,2,3,4-tetrahydrobenzo[4,5]imidazo[1,2-a]pyrimidin-7-yl)pyrimidin-2-yl)amino)tetrahydro-2H-pyran-3-ol] | 123 | ≤ 500 | ≤ 500 | ≤ 500 | – | 5020 | 1940 | 30 | 1.21
CNS(=O)(=O)N1CCC(Nc2ncc(Cl)c(-c3cc(F)c4nc5n(c4c3)CCCN5C)n2)CC1 [TB-144, 4-((5-chloro-4-(9-fluoro-1-methyl-1,2,3,4-tetrahydrobenzo[4,5]imidazo[1,2-a]pyrimidin-7-yl)pyrimidin-2-yl)amino)-N-methylpiperidine-1-sulfonamide] | 126 | ≤ 500 | ≤ 500 | ≤ 500 | – | – | – | – | –
CC(C)n1c(N2CCOC2=O)nc2c(F)cc(-c3nc(Nc4ccc(S(C)(=O)=O)cc4)ncc3Cl)cc21 [TB-54, 3-(6-(5-chloro-2-((4-(methylsulfonyl)phenyl)amino)pyrimidin-4-yl)-4-fluoro-1-isopropyl-1H-benzo[d]imidazol-2-yl)oxazolidin-2-one] | 411 | – | – | – | 101 | – | – | – | –
CNS(=O)(=O)c1ccc(Nc2ncc(Cl)c(-c3cc(F)c4nc(N(C)C)n(C(C)C)c4c3)n2)cc1 [TB-20, 4-((5-chloro-4-(2-(dimethylamino)-4-fluoro-1-isopropyl-1H-benzo[d]imidazol-6-yl)pyrimidin-2-yl)amino)-N-methylbenzenesulfonamide] | 141 | – | – | – | 44.6 | – | – | – | –
CN1CCn2c1nc1c(F)cc(-c3nc(N[C@@H]4CCOC[C@H]4O)ncc3Cl)cc12 [TB-45, (3S,4R)-4-((5-chloro-4-(8-fluoro-1-methyl-2,3-dihydro-1H-benzo[d]imidazo[1,2-a]imidazol-6-yl)pyrimidin-2-yl)amino)tetrahydro-2H-pyran-3-ol] | 241 | ≤ 500 | ≤ 500 | ≤ 500 | – | – | – | – | –
CN1CCCn2c1nc1c(F)cc(-c3nc(N[C@@H]4CCOC[C@H]4O)ncc3F)cc12 [TB-42, (3S,4R)-4-((5-fluoro-4-(9-fluoro-1-methyl-1,2,3,4-tetrahydrobenzo[4,5]imidazo[1,2-a]pyrimidin-7-yl)pyrimidin-2-yl)amino)tetrahydro-2H-pyran-3-ol] | 195 | ≤ 500 | ≤ 500 | ≤ 500 | – | – | – | – | –
COCc1cc(Nc2ncc(Cl)c(-c3cc(F)c4nc5n(c4c3)CCCN5C)n2)ccn1 [TB-130, 5-chloro-4-(9-fluoro-1-methyl-1,2,3,4-tetrahydrobenzo[4,5]imidazo[1,2-a]pyrimidin-7-yl)-N-(2-(methoxymethyl)pyridin-4-yl)pyrimidin-2-amine] | 155 | ≤ 500 | ≤ 500 | ≤ 500 | – | – | – | – | –
CC1(C)Cn2c(nc3c(F)cc(-c4nc(N[C@@H]5CCOC[C@H]5O)ncc4Cl)cc32)S(=O)(=O)C1 [TB-148] | 222 | – | – | – | 71.4 | – | – | – | –
C[C@@H]1CCN(C)c2nc3c(F)cc(-c4nc(N[C@@H]5CCOC[C@H]5O)ncc4Cl)cc3n21 [TB-91, (3S,4R)-4-((5-chloro-4-((R)-9-fluoro-1,4-dimethyl-1,2,3,4-tetrahydrobenzo[4,5]imidazo[1,2-a]pyrimidin-7-yl)pyrimidin-2-yl)amino)tetrahydro-2H-pyran-3-ol] | 68.4 | ≤ 500 | ≤ 500 | ≤ 500 | – | – | – | – | –
CC1CCN(C)c2nc3c(F)cc(-c4nc(N[C@@H]5CCOC[C@H]5O)ncc4Cl)cc3n21 (mixture of isomers) [TB-44, (3S,4R)-4-((5-chloro-4-(9-fluoro-1,4-dimethyl-1,2,3,4-tetrahydrobenzo[4,5]imidazo[1,2-a]pyrimidin-7-yl)pyrimidin-2-yl)amino)tetrahydro-2H-pyran-3-ol] | 90.2 | ≤ 500 | ≤ 500 | ≤ 500 | – | – | – | – | –
CC(C)n1c(N2CCOC2=O)nc2c(F)cc(-c3ccnc(NC4CCN(S(C)(=O)=O)CC4)n3)cc21 [TB-94] | 458 | – | – | – | 44.4 | – | – | – | –
CN1CCCn2c1nc1c(F)cc(-c3nc(NC4CCOCC4)ncc3Cl)cc12 [TB-132, 5-chloro-4-(9-fluoro-1-methyl-1,2,3,4-tetrahydrobenzo[4,5]imidazo[1,2-a]pyrimidin-7-yl)-N-(tetrahydro-2H-pyran-4-yl)pyrimidin-2-amine] | 246 | 500 to 2000 | ≤ 500 | ≤ 500 | – | – | – | – | –
CCS(=O)(=O)N1CCC(Nc2ncc(Cl)c(-c3cc(F)c4nc5n(c4c3)CCCN5C)n2)CC1 [TB-143, 5-chloro-N-(1-(ethylsulfonyl)piperidin-4-yl)-4-(9-fluoro-1-methyl-1,2,3,4-tetrahydrobenzo[4,5]imidazo[1,2-a]pyrimidin-7-yl)pyrimidin-2-amine] | 58.3 | ≤ 500 | ≤ 500 | ≤ 500 | – | – | – | – | –
